Laboratory results from patent US9822114B2, “Tricyclic oxazolidinone antibiotic compounds” (Idorsia Pharmaceuticals Ltd, priority 2008, dated 2017).

System: M. catarrhalis A894
Test: Minimal inhibitory concentration (MIC), microdilution method in cation-adjusted Mueller-Hinton Broth (CLSI M7-A7)
Format: cell-based
Details: Moraxella catarrhalis, strain A894
Protocol: Minimal inhibitory concentrations (MICs; mg/1) were determined in cation-adjusted Mueller-Hinton Broth by a microdilution method following the description given in “Methods for Dilution Antimicrobial Susceptibility Tests for Bacteria that Grow Aerobically”, Approved standard, 7th ed., Clinical and Laboratory Standards Institute (CLSI) Document M7-A7, Wayne, Pa., USA, 2006.

| SMILES | MIC [µg/mL] |
| --- | --- |
| O=C1COc2ccc(N3C[C@H](CCNCC4Cn5c(=O)ccc6ncc(F)c4c65)OC3=O)cc2N1 (mixture of isomers) [Example 102, (RS)-3-fluoro-4-({2-[(S)-2-oxo-3-(3-oxo-3,4-dihydro-2H-benzo[1,4]oxazin-6-yl)-oxazolidin-5-yl]-ethylamino}-methyl)-4,5-dihydro-pyrrolo[3,2,1-de][1,5]naphthyridin-7-one] | ≤ 0.031 |
| O=C1COc2ccc(N3C[C@@H](CCNCC4Cn5c(=O)ccc6ncc(F)c4c65)OC3=O)cc2N1 (mixture of isomers) [Example 103, (RS)-3-fluoro-4-({2-[(R)-2-oxo-3-(3-oxo-3,4-dihydro-2H-benzo[1,4]oxazin-6-yl)-oxazolidin-5-yl]-ethylamino}-methyl)-4,5-dihydro-pyrrolo[3,2,1-de][1,5]naphthyridin-7-one] | ≤ 0.031 |
| O=C1CSc2ccc(N3C[C@H](CNCC4Cn5c(=O)cnc6cccc4c65)OC3=O)cc2N1 (mixture of isomers) [Example 106, (RS)-6-({[(S)-2-oxo-3-(3-oxo-3,4-dihydro-2H-benzo[1,4]thiazin-6-yl)-oxazolidin-5-ylmethyl]-amino}-methyl)-5,6-dihydro-pyrrolo[1,2,3-de]quinoxalin-3-one] | ≤ 0.031 |
| O=C1O[C@@H](CCNC2Cn3c(=O)ccc4ccc(F)c2c43)CN1c1ccc2c(c1)OCCO2 (mixture of isomers) [Example 107, (RS)-1-{2-[(S)-3-(2,3-dihydro-benzo[1,4]dioxin-6-yl)-2-oxo-oxazolidin-5-yl]-ethylamino}-9-fluoro-1,2-dihydro-pyrrolo[3,2,1-ij]quinolin-4-one] | 8 |
| O=C1CSc2ccc(N3C[C@H]([C@H](O)CC(=O)N[C@@H]4Cn5c(=O)ccc6ccc(F)c4c65)OC3=O)cc2N1 (mixture of isomers) [Example 108, (RS)—N—((S)-9-fluoro-4-oxo-1,2-dihydro-4H-pyrrolo[3,2,1-ij]quinolin-1-yl)-3-hydroxy-3-[(RS)-2-oxo-3-(3-oxo-3,4-dihydro-2H-benzo[1,4]thiazin-6-yl)-oxazolidin-5-yl]-propionamide] | ≤ 0.031 |
| O=C1CSc2ccc(N3C[C@@H](CNCC4Cn5c(=O)cnc6cccc4c65)OC3=O)cc2N1 (mixture of isomers) [Example 110, (RS)-6-({[(R)-2-oxo-3-(3-oxo-3,4-dihydro-2H-benzo[1,4]thiazin-6-yl)-oxazolidin-5-ylmethyl]-amino}-methyl)-5,6-dihydro-pyrrolo[1,2,3-de]quinoxalin-3-one] | ≤ 0.031 |
| O=C1CSc2ccc(N3C[C@@H](CCCNC4Cn5c(=O)cnc6cccc4c65)OC3=O)nc2N1 (mixture of isomers) [Example 115, (RS)-6-{3-[(R)-2-oxo-3-(3-oxo-3,4-dihydro-2H-pyrido[3,2-b][1,4]thiazin-6-yl)-oxazolidin-5-yl]-propylamino}-5,6-dihydro-pyrrolo[1,2,3-de]quinoxalin-3-one] | ≤ 0.031 |
| O=C1CSc2ccc(N3C[C@@H](CCCNC4Cn5c(=O)ccc6ccc(Br)c4c65)OC3=O)cc2N1 (mixture of isomers) [Example 116, (RS)-9-bromo-1-{3-[(R)-2-oxo-3-(3-oxo-3,4-dihydro-2H-benzo[1,4]thiazin-6-yl)-oxazolidin-5-yl]-propylamino}-1,2-dihydro-pyrrolo[3,2,1-ij]quinolin-4-one] | ≤ 0.031 |
| N#Cc1ccc2ccc(=O)n3c2c1C(NCCC[C@@H]1CN(c2ccc4c(c2)NC(=O)CS4)C(=O)O1)C3 (mixture of isomers) [Example 117, (RS)-4-oxo-1-{3-[(R)-2-oxo-3-(3-oxo-3,4-dihydro-2H-benzo[1,4]thiazin-6-yl)-oxazolidin-5-yl]-propylamino}-1,2-dihydro-4H-pyrrolo[3,2,1-ij]quinoline-9-carbonitrile] | ≤ 0.031 |
| N#Cc1ccc2ccc(=O)n3c2c1C(NCCC[C@@H]1CN(c2ccc4c(n2)NC(=O)CS4)C(=O)O1)C3 (mixture of isomers) [Example 118, (RS)-4-oxo-1-{3-[(R)-2-oxo-3-(3-oxo-3,4-dihydro-2H-pyrido[3,2-b][1,4]thiazin-6-yl)-oxazolidin-5-yl]-propylamino}-1,2-dihydro-4H-pyrrolo[3,2,1-ij]quinoline-9-carbonitrile] | ≤ 0.031 |
| O=C1COc2ccc(N3C[C@H](CCCNC4Cn5c(=O)ccc6ccc(F)c4c65)OC3=O)nc2N1 (mixture of isomers) [Example 124, (RS)-9-fluoro-1-{3-[(S)-2-oxo-3-(3-oxo-3,4-dihydro-2H-pyrido[3,2-b][1,4]oxazin-6-yl)-oxazolidin-5-yl]-propylamino}-1,2-dihydro-pyrrolo[3,2,1-ij]quinolin-4-one] | ≤ 0.031 |
| O=C1CSc2ccc(N3C[C@@H](CCCNC4Cn5c(=O)ccc6ccc(F)c4c65)OC3=O)nc2N1 (mixture of isomers) [Example 125, (RS)-9-fluoro-1-{3-[(R)-2-oxo-3-(3-oxo-3,4-dihydro-2H-pyrido[3,2-b][1,4]thiazin-6-yl)-oxazolidin-5-yl]-propylamino}-1,2-dihydro-pyrrolo[3,2,1-ij]quinolin-4-one] | ≤ 0.031 |
| O=C1CSc2ccc(N3C[C@H](CCCNC4Cn5c(=O)ccc6ccc(F)c4c65)OC3=O)nc2N1 (mixture of isomers) [Example 126, (RS)-9-fluoro-1-{3-[(S)-2-oxo-3-(3-oxo-3,4-dihydro-2H-pyrido[3,2-b][1,4]thiazin-6-yl)-oxazolidin-5-yl]-propylamino}-1,2-dihydro-pyrrolo[3,2,1-ij]quinolin-4-one] | ≤ 0.031 |
| Cc1ccc2ccc(=O)n3c2c1C(NCCC[C@@H]1CN(c2ccc4c(c2)NC(=O)CS4)C(=O)O1)C3 (mixture of isomers) [Example 152, (RS)-9-methyl-1-{3-[(R)-2-oxo-3-(3-oxo-3,4-dihydro-2H-benzo[1,4]thiazin-6-yl)-oxazolidin-5-yl]-propylamino}-1,2-dihydro-pyrrolo[3,2,1-ij]quinolin-4-one] | ≤ 0.031 |
| CN(CCC[C@@H]1CN(c2ccc3c(c2)NC(=O)CS3)C(=O)O1)C1Cn2c(=O)ccc3ccc(F)c1c32 (mixture of isomers) [Example 153, (RS)-9-fluoro-1-(methyl-{3-[(R)-2-oxo-3-(3-oxo-3,4-dihydro-2H-benzo[1,4]thiazin-6-yl)-oxazolidin-5-yl]-propyl}-amino)-1,2-dihydro-pyrrolo[3,2,1-ij]quinolin-4-one] | ≤ 0.031 |
| O=C1COc2ccc(N3C[C@H](CCNCC4Cn5c(=O)cnc6cccc4c65)OC3=O)cc2N1 (mixture of isomers) [Example 154, (RS)-6-({2-[(S)-2-oxo-3-(3-oxo-3,4-dihydro-2H-benzo[1,4]oxazin-6-yl)-oxazolidin-5-yl]-ethylamino}-methyl)-5,6-dihydro-pyrrolo[1,2,3-de]quinoxalin-3-one] | ≤ 0.031 |
| O=C1COc2ccc(N3C[C@@H](CCNCC4Cn5c(=O)cnc6cccc4c65)OC3=O)cc2N1 (mixture of isomers) [Example 155, (RS)-6-({2-[(R)-2-oxo-3-(3-oxo-3,4-dihydro-2H-benzo[1,4]oxazin-6-yl)-oxazolidin-5-yl]-ethylamino}-methyl)-5,6-dihydro-pyrrolo[1,2,3-de]quinoxalin-3-one] | ≤ 0.031 |
| O=C1CSc2ccc(N3C[C@@H](CCNCC4Cn5c(=O)cnc6cccc4c65)OC3=O)cc2N1 (mixture of isomers) [Example 156, (RS)-6-({2-[(R)-2-oxo-3-(3-oxo-3,4-dihydro-2H-benzo[1,4]thiazin-6-yl)-oxazolidin-5-yl]-ethylamino}-methyl)-5,6-dihydro-pyrrolo[1,2,3-de]quinoxalin-3-one] | ≤ 0.031 |
| O=C1CSc2ccc(N3C[C@H](CCNCC4(O)Cn5c(=O)ccc6ccc(F)c4c65)OC3=O)cc2N1 (mixture of isomers) [Example 174, (RS)-9-fluoro-1-hydroxy-1-({2-[(S)-2-oxo-3-(3-oxo-3,4-dihydro-2H-benzo[1,4]thiazin-6-yl)-oxazolidin-5-yl]-ethylamino}-methyl)-1,2-dihydro-pyrrolo[3,2,1-ij]quinolin-4-one] | ≤ 0.031 |
| O=C1CSc2ccc(N3C[C@H](CNCC4Cn5c(=O)ccc6cccc4c65)OC3=O)nc2N1 (mixture of isomers) [Example 175, (RS)-1-({[(S)-2-oxo-3-(3-oxo-3,4-dihydro-2H-pyrido[3,2-b][1,4]thiazin-6-yl)-oxazolidin-5-ylmethyl]-amino}-methyl)-1,2-dihydro-pyrrolo[3,2,1-ij]quinolin-4-one] | ≤ 0.031 |
| O=C1CSc2ccc(N3C[C@H](CCNCC4Cn5c(=O)ccc6cccc4c65)OC3=O)nc2N1 (mixture of isomers) [Example 176, (RS)-1-({2-[(S)-2-oxo-3-(3-oxo-3,4-dihydro-2H-pyrido[3,2-b][1,4]thiazin-6-yl)-oxazolidin-5-yl]-ethylamino}-methyl)-1,2-dihydro-pyrrolo[3,2,1-ij]quinolin-4-one] | ≤ 0.031 |
| O=C1CSc2ccc(N3C[C@@H](CCCNC4Cn5c(=O)ccc6ccc(Cl)c4c65)OC3=O)nc2N1 (mixture of isomers) [Example 177, (RS)-9-chloro-1-{3-[(R)-2-oxo-3-(3-oxo-3,4-dihydro-2H-pyrido[3,2-b][1,4]thiazin-6-yl)-oxazolidin-5-yl]-propylamino}-1,2-dihydro-pyrrolo[3,2,1-ij]quinolin-4-one] | ≤ 0.031 |
| O=C1CSc2ccc(N3C[C@@H](CCCNC4Cn5c(=O)ccc6ccc(Cl)c4c65)OC3=O)cc2N1 (mixture of isomers) [Example 178, (RS)-9-chloro-1-{3-[(R)-2-oxo-3-(3-oxo-3,4-dihydro-2H-benzo[1,4]thiazin-6-yl)-oxazolidin-5-yl]-propylamino}-1,2-dihydro-pyrrolo[3,2,1-ij]quinolin-4-one] | ≤ 0.031 |
| CCc1ccc2ccc(=O)n3c2c1C(NCCC[C@@H]1CN(c2ccc4c(c2)NC(=O)CS4)C(=O)O1)C3 (mixture of isomers) [Example 179, (RS)-9-ethyl-1-{3-[(R)-2-oxo-3-(3-oxo-3,4-dihydro-2H-benzo[1,4]thiazin-6-yl)-oxazolidin-5-yl]-propylamino}-1,2-dihydro-pyrrolo[3,2,1-ij]quinolin-4-one] | ≤ 0.031 |
